Measurements reported in patent publication US9447132B2 (priority 2013, dated 2016).
Marks after values point to notes of the source that are not given here.

Columns and labels:
HCV replicon = assay: Predicted EC50 against HCV replicon in primary human hepatocytes; type: cell-based; settings: Hepatitis C virus, Hepatocyte
[1] = Buffer stability (stability of the compounds in the absence of cells); type: physicochemical; settings: 24 hr
[2] = tested on: hepatocytes (human, dog, monkey and rat); assay: Half-lives of active triphosphate in hepatocytes from four species; type: in vitro ADME; settings: across hepatocytes from four species (human, dog, monkey, rat)
Protocol: (§1) Human hepatocyte cells used for half-life determinations were human liver hepatocyte 12-well format cells and were seeded at 0.67 million cells per well. Canine hepatocyte cells used for half-life determinations were beagle dog liver hepatocyte 12-well format cells and were seeded at 0.67 million cells per well. Monkey hepatocyte cells used for half-life determinations were Cynomolgus monkey liver hepatocyte 12-well format cells, and were seeded at 0.9 million cells per well. Rat hepatocyte cells for half-life determinations were Sprague-Dawley (SD) rat liver hepatocyte 12-well format cells, and were seeded at 0.67 million cells per well. All cells were obtained from Life Technologies.

[3] = tested on: Sprague-Dawley (SD) rat liver hepatocyte; assay: Half-life of active triphosphate in rat hepatocytes; type: in vitro ADME; settings: parenthesis = 95% confidence interval
Protocol: as §1

[4] = tested on: beagle dog liver hepatocyte; assay: Half-life of active triphosphate in dog hepatocytes; type: in vitro ADME; settings: parenthesis = 95% confidence interval
Protocol: as §1

[5] = tested on: Cynomolgus monkey liver hepatocyte; assay: Half-life of active triphosphate in monkey hepatocytes; type: in vitro ADME; settings: parenthesis = 95% confidence interval
Protocol: as §1

primary hepatocytes = assay: Formula IV concentration from Formula II dosing in primary hepatocytes; type: in vitro ADME, human
Description: The general methods of Example 13 were used to determine compound concentrations.

human liver hepatocytes = assay: Triphosphate levels (Formula IV, GS-7977-TP) in human hepatocytes; type: in vitro ADME; settings: for time at which peak levels were obtained: 5 μM parent, 48 hours of incubation
Protocol: […] Cells were washed twice with cold PBS.
Supernatants were removed and analyzed by LC-MS/MS. […] Samples were centrifuged at 3000 rpm for 15 minutes. Supernatants were removed and analyzed by LC-MS/MS.

human liver hepatocyte = assay: Half-life of active triphosphate in human hepatocytes; type: in vitro ADME; settings: for t1/2 (hr): Human hepatocytes, parenthesis = 95% confidence interval
Protocol: as §1

HCV genotype 1, 2 or 3 = settings: once-daily 300 mg for seven days, treatment naïve patients; cited from earlier work
HCV = settings: several large clinical trials; cited from earlier work
HCV genotype 1 = settings: cited from earlier work
[6] = 2 hr incubation with 5 μM Formula II
[7] = 4 hr incubation with 5 μM Formula II
[8] = 8 hr incubation with 5 μM Formula II
[9] = 25 hr incubation with 5 μM Formula II
[10] = 48 hr incubation with 5 μM Formula II

## [2H]c1cn([C@@H]2O[C@H](C([2H])([2H])OP(=O)(N[C@@H](C)C(=O)OC(C)C)Oc3ccccc3)[C@@H](O)[C@@]2(C)O)c(=O)[nH]c1=O (stereo partly drawn) [Formula II]
HCV replicon
  EC50: 6.25 to 10 nM
[1]; Table 1
  Buffer Stability Parent T24 hr 37° C.: 97
[1]; Table 2
  Buffer Stability Parent T24 hr 37° C.: 97

## C[C@]1(O)C(n2ccc(=O)[nH]c2=O)OC(COP(=O)(O)OP(=O)(O)OP(=O)(O)O)[C@H]1O (stereo partly drawn) [Formula IV]
[2]
  half-lives range: 10 to 30 h
[3]
  t1/2 (hr): 10.2 (8.6-12.5) hr
[4]
  t1/2 (hr): 29.6 (22.0-45.4) hr
[5]
  t1/2 (hr): 14.5 (11.8-18.9) hr
Primary hepatocytes; 50 nM Formula II, primary hepatocytes vs Huh-luc/neo cells
  Formula IV concentration higher than in Huh-luc/neo cells: 5- to 8 fold
Primary hepatocytes; Formula II at 50 nM, primary hepatocytes, 24 hours
  level of Formula IV: 9.2-16.2 pmol/million cells
Human liver hepatocytes; human hepatocytes
  time at which peak levels were obtained: > 48 h
Human liver hepatocytes; [6]
  Formula IV (pmol/million cells) rep 1: 72.1 pmol/million cells
  Formula IV (pmol/million cells) rep 2: 71.5 pmol/million cells
  Formula IV (pmol/million cells) rep 3: 67.9 pmol/million cells
Human liver hepatocytes; [7]
  Formula IV (pmol/million cells) rep 1: 130 pmol/million cells
  Formula IV (pmol/million cells) rep 2: 129 pmol/million cells
  Formula IV (pmol/million cells) rep 3: 129 pmol/million cells
Human liver hepatocytes; [8]
  Formula IV (pmol/million cells) rep 1: 218 pmol/million cells
  Formula IV (pmol/million cells) rep 2: 217 pmol/million cells
  Formula IV (pmol/million cells) rep 3: 236 pmol/million cells
Human liver hepatocytes; [9]
  Formula IV (pmol/million cells) Mean+StDev: 486 pmol/million cells
  Formula IV (pmol/million cells) rep 1: 506 pmol/million cells
  Formula IV (pmol/million cells) rep 2: 465 pmol/million cells
  Formula IV (pmol/million cells) rep 3: 488 pmol/million cells
Human liver hepatocytes; [10]
  Formula IV (pmol/million cells) rep 1: 619 pmol/million cells
  Formula IV (pmol/million cells) rep 2: 581 pmol/million cells
  Formula IV (pmol/million cells) rep 3: 575 pmol/million cells
Human liver hepatocyte
  t1/2 (hr): 27.6 (26.0-29.4)^a hr
Human liver hepatocyte; human hepatocytes
  half-life: > 24 h

## C[C@@]1(F)[C@H](O)[C@@H](COP(=O)(O)OP(=O)(O)OP(=O)(O)O)O[C@H]1n1ccc(=O)[nH]c1=O [GS-7977-TP, reference compound]
[2]
  half-lives range: 8 to 23 h
[3]
  t1/2 (hr): 7.6 (6.4-9.3) hr
[4]
  t1/2 (hr): 17.7 (15.0-21.5) hr
[5]
  t1/2 (hr): 9.3 (7.9-11.4) hr
Human liver hepatocytes; human hepatocytes
  time at which peak levels were obtained: 24 h
Human liver hepatocytes; over a 48 hour period, 5 μM, human hepatocytes
  intracellular conversion to triphosphate, greater than that of Formula IV from Formula II: 2 fold
Human liver hepatocyte
  t1/2 (hr): 22.6 (21.5-23.9) hr

## CC(C)OC(=O)[C@@H](C)N[P@@](=O)(OC[C@H]1O[C@@H](n2ccc(=O)[nH]c2=O)[C@](C)(Cl)[C@@H]1O)Oc1ccccc1 [IDX21437]
HCV genotype 1, 2 or 3
  mean maximum reduction in viral load: 4.2-4.3 log 10 IU/mL

## CC(C)OC(=O)[C@H](C)N[P@](=O)(OC[C@H]1O[C@@H](n2ccc(=O)[nH]c2=O)[C@@](C)(F)C1O)Oc1ccccc1 (stereo partly drawn) [Sovaldi, Sofosbuvir]
HCV
  sustained viral response (SVR) of twelve weeks, trial participants: 50-90%

## CC(C)OC(=O)[C@H](C)NP(=S)(OC[C@H]1O[C@@H](n2ccc(=O)[nH]c2=O)[C@](C)(O)[C@@H]1O)Oc1ccccc1 (stereo partly drawn) [VX-135]
HCV genotype 1; eleven patients who completed 12 weeks of treatment, with daclatasvir
  completion of treatment rate (SVR4): 91%
HCV genotype 1; intent-to-treat, treatment-naïve genotype 1, 200 mg VX-135 in combination with daclatasvir
  sustained viral response rate four weeks after completion of treatment (SVR4): 83%
